Results: US9757399B2, “Butyrylcholinesterase inhibitors” (priority 2006, dated 2017)
Where “and” joins values, the source holds several entries; their conditions need not be identical. Equal values may be shown once. Read-outs that look alike come from different tables or passages of the source.

Legend:
[1] = molecular target: T1, Acetylcholinesterase (from electric eel) (Electrophorus electricus, UniProt O42275); assay: Acetylcholinesterase activity, Ellman assay after pre-incubation with inhibitor; assay type: biochemical; settings: 100 μM compound, 60 minutes at 25° C.; read-out: % Activity ± SD (acetylcholinesterase activity relative to enzyme incubated with solvent)
T1 construct: Acetylcholinesterase (from electric eel); purchased Sigma; host or cells: electric eel (natural source)
T1 sequence (O42275 24-633): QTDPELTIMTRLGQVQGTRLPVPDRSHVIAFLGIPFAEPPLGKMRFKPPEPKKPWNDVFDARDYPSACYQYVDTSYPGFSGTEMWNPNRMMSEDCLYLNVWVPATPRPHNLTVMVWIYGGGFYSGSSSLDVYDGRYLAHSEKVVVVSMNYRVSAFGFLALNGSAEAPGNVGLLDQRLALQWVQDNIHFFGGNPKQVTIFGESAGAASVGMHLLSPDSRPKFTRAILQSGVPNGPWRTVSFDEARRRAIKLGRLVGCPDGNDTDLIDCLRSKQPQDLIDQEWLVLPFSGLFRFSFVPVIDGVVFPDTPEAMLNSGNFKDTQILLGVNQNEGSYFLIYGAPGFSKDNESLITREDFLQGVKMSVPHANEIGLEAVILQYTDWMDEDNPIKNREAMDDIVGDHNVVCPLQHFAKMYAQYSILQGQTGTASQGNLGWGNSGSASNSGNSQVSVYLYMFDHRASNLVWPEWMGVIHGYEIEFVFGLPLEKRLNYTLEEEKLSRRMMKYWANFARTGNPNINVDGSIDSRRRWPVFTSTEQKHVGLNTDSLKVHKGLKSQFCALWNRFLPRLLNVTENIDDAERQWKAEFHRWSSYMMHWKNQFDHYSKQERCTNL
Experimental: Acetylcholinesterase (from electric eel), butyrylcholinesterase (from horse serum), DTNB, butyrylthiocholine, acetylthiocholine, and BSA were purchased from Sigma. The dialkyl 2-chlorophenyl (and 4-chlorophenyl) phosphates were solubilized in reagent grade methanol.
Cholinesterase activity measurements were performed essentially according to the method of Ellman (Biochemical Pharmacology 7:88-90, 1961). The composition of the assay mixture was 0.1 M sodium phosphate, pH 7.5, 0.033 M DTNB, 0.001 M MgCl2, and 100 μg/mL of BSA containing appropriate amounts of substrate and inhibitor. Each assay was initiated by the addition of substrate and the activity quantified by measuring the formation of the thionitrobenzoate anion at 412 nm at 37° C. Methanol used to solubilize the dialkyl phenyl phosphates [1% (v/v) final concentration] had no inhibitory effect on either enzyme.
Butyrylcholinesterase was pre-incubated at room temperature with inhibitor in the assay cocktail minus substrate for varying periods of time at 25° C. Substrate was then added and the activity measured as described above. The relative rates of enzyme inactivation were determined by plotting enzyme activity versus time of pre-incubation with inhibitor. Results were expressed as the rate constant for the rate of enzyme inactivation. In the case of AcChase, results were expressed as the % of activity remaining relative to the enzyme incubated only with solvents.
The first series of experiments determined the effect of the dialkyl 2-chlorophenyl (and 4-chlorophenyl) phosphates on both AcChase and BuChase. None of the compounds had any inhibitory effect on AcChase (See Table 1). In Table 1, AcChase was incubated with 100 μM of the indicated phenyl phosphate for 60 minutes at 25° C. and then assayed as described above. Results were expressed as the % activity relative to enzyme incubated with solvent ±SD (standard deviation).

BuChase = molecular target: T2, BuChase (Equus caballus, UniProt P81908); assay: MALDI-TOF of tryptic peptides of inhibitor-treated BuChase
T2 construct: butyrylcholinesterase (from horse serum); purchased Sigma; host or cells: horse serum (natural source)
T2 sequence (P81908 whole entry): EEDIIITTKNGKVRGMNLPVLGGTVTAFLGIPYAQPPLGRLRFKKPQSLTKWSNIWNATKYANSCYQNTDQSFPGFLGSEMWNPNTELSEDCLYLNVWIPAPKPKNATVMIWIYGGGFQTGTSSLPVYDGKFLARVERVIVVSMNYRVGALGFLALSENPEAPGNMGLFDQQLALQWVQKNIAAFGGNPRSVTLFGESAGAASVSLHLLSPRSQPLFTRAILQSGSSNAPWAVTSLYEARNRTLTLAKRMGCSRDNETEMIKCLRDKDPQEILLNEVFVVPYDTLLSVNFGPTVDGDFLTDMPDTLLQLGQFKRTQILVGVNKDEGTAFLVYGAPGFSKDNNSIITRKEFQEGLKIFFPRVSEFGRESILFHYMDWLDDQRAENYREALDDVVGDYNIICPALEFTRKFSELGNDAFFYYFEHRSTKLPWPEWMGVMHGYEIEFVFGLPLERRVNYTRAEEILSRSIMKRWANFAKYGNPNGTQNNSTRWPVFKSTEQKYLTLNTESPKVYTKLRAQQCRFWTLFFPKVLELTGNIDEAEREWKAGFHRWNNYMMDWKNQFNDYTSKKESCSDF
Experimental: BuChase was incubated with di-n-butyl-2-chlorophenyl phosphate. Excess inhibitor was removed and the enzyme was digested with trypsin. The tryptic peptides were then analyzed by MALDI-TOF. Unmodified peptide containing the active site serine (MW 2198.86) and modified peptide (MW 2390.9060) can be seen. […] Irreversible inhibitors usually covalently modify an enzyme, and inhibition cannot therefore be reversed.

trypsin = assay: Trypsin activity (BAEE hydrolysis); assay type: biochemical; settings: 10 μM, 60 minutes at 25° C.
Experimental: (§1) The effect of DB2ClPP (di-n-butyl 2-chlorophenyl phosphate) on the activity of trypsin was assayed. Trypsin was incubated with solvent, 10 μM DB2CPP, or 10 μM DIFP (a known inhibitor of trypsin) for 60 minutes at 25° C. to determine any inhibitory effect of DB2CPP on enzymatic activity. Enzyme activity is given as nmoles of BAEE hydrolyzed per minute at 25° C. Data shown are the mean of three replicates ±SEM. (FIG. 3)

chymotrypsin = assay: Chymotrypsin activity (ATEE hydrolysis); assay type: biochemical; settings: 10 μM, 60 minutes at 25° C.
Experimental: as §1, with “DB2ClPP” for “DB2ClPP (di-n-butyl 2-chlorophenyl phosphate)”, “chymotrypsin” for “trypsin”, “PMSF” for “DIFP”, “chymotrypsin)” for “trypsin)”, “ATEE” for “BAEE”, “4)” for “3)”

[2] = system: porcine umbilical stem cells; assay type: cell-based; settings: increasing concentrations, 48 hours, Neurobasal Medium
Experimental: Porcine umbilical stem cells were cultured in Neurobasal Medium supplemented with B27 (Invitrogen) and antibiotics for various periods of with varying concentrations of di-n-butyl-2-chlorophenyl phosphate. Cells were collected, washed, counted, and analyzed for viability by Trypan Blue staining.

[3] = system: porcine umbilical stem cells; assay type: in vitro ADME
Experimental: In addition, uptake of di-n-butyl-2-chlorophenyl phosphate by porcine umbilical stem cells was measured after 24 and 48 hours of culture (Table 5).

human umbilical cells = assay type: in vitro ADME
Experimental: Also, the uptake of di-n-butyl-2-chlorophenyl phosphate by human umbilical cells was measured after […] for both undifferentiated cells and differentiating neurons. (Table 6)

[4] = assay type: in vivo, male Long-Evans rats; settings: rat, intraperitoneal 0.2 mL of 10 mg/mL in DMSO, 30 minutes, brain tissue (1.5 g), GC/MS; one value per animal
Experimental: An animal study using two groups (n=7/group) of male Long-Evans rats (200-225 g, Charles River, Portage, Mich.) was conducted to determine whether DB2ClPP crosses the blood brain barrier. DB2ClPP was dissolved in dimethyl sulfoxide (DMSO). Rats were injected intraperitoneally with either 0.2 mL DMSO (vehicle control) or 0.2 mL of a 10 mg/mL solution of DB2ClPP with DMSO as solvent. Thirty minutes after DB2ClPP treatment, animals were deeply anesthetized with isoflurane and then decapitated. Brains were removed quickly, rinsed in ice cold phosphate buffer saline (pH 7.4) and block dissected and flash frozen in liquid nitrogen and stored at −80° C. until assayed.
The tissue from two animals injected with DB2ClPP were processed as follows: i) brain tissue (1.5 g) was allowed to thaw on ice in a Dounce homogenizer; ii) 10 mL of methylene chloride was added and the tissue extracted with 20 strokes of the loose fitting pestle. The homogenate was clarified by centrifugation and the supernatant extracted three times with methylene chloride using a separatory funnel. The organic phase was collected, pooled, and dried over magnesium sulfate. The eluate was then concentrated down to a volume of approximately 200 μl under nitrogen and analyzed by GC/MS for the presence of the DB2ClPP. A solution of neat DB2ClPP served as control. The DB2ClPP was present in both samples. […]

CCCCOP(=O)(OCCCC)Oc1ccccc1Cl [DB2ClPP, Di-n-butyl 2-chlorophenyl phosphate]
activity at 100 µM [1]: 97.6 ± 0.029%
type of inhibition from covalent modification of active site serine peptide (FIG. 12) (BuChase): likely an irreversible inhibitor
effect on trypsin activity (FIG. 3) (trypsin): none of the above mentioned enzymes were affected
effect on chymotrypsin activity (FIG. 4) (chymotrypsin): none of the above mentioned enzymes were affected
effect on mortality of porcine umbilical stem cells (FIG. 7) [2]: did not have any significant effect on mortality
fg DB2Cl-PP/cell (±SEM) ([3]; 0 hours): 2.55 ± 0.011 fg/cell
fg DB2Cl-PP/cell (±SEM) ([3]; 24 hours): 11.57 ± 1.02 fg/cell
fg DB2Cl-PP/cell (±SEM) ([3]; 48 hours): 13.62 ± 0.003 fg/cell
uptake, fg/cell (human umbilical cells; Neurons, 0 hours): 78.85 ± 8.04 fg/cell
uptake, fg/cell (human umbilical cells; Neurons, 24 hours): 820.52 ± 82.32 fg/cell
uptake, fg/cell (human umbilical cells; Undifferentiated cells, 0 hours): 114.72 ± 37.93 fg/cell
uptake, fg/cell (human umbilical cells; Undifferentiated cells, 24 hours): 795.89 ± 202.41 fg/cell
amount of DB2ClPP in brain sample [4]: 220 ng and 125 ng
